Results from US9170257B2 (priority 2012, dated 2015).
Read-outs that look alike come from different tables or passages of the source.

Test: Tissue distribution of curcumin and THC at necropsy 15 minutes post-infusion
Set-up: species or system Beagle dogs
Conditions: both sexes, beagle, dog, in vivo, 10 mg/kg; for Kp at 8 h: 8 hr infusion
Procedure: The test article will be administered to 8 Beagle dogs by intravenous infusion over two hours (Part A) or eight hours (Part B) as shown in Table 6.
Multiple samples of tissue weighing approximately 1 gram were removed and snap frozen in the presence or absence of phosphoric acid (H3PO4). For all tissue samples, the levels of curcumin and THC were determined using a method developed by the Bioanalytical Department at Nucro-Technics. […] Values that were below the limit of quantification were assigned a value of 0. […] Tissue distribution data was analyzed using, unless stated, the data from 4 dogs and are presented as the mean±standard error (S.E.).

`COc1cc(CCC(=O)CC(=O)CCc2ccc(O)c(OC)c2)ccc1O` [THC, tetrahydrocurcumin] showed a Kp at 8 h (H3PO4 stabilized, read-out: Kp [tissue]/[plasma], Striatum) of 0.03, a Kp at 8 h (H3PO4 stabilized, read-out: Kp [tissue]/[plasma], Urinary Bladder) of 0.0106 and a concentration at 15 min (Average tissue concentration, Intestinal wall, Eight hour infusion, H3PO4 stabilized) of 0.09 ng/g. The concentration at 15 min (Average tissue concentration, Intestinal wall, Two hour infusion, H3PO4 stabilized) was 2.11 ng/g, the concentration at 15 min (Eight hour infusion, H3PO4 stabilized, read-out: Average tissue concentration, Bladder) was 1.11 ng/g and the concentration at 15 min (Eight hour infusion, H3PO4 stabilized, read-out: Average tissue concentration, Brainstem) was 3.02 ng/g. The concentration at 15 min (Eight hour infusion, H3PO4 stabilized, read-out: Average tissue concentration, Cortex) was 0.49 ng/g, the concentration at 15 min (Eight hour infusion, H3PO4 stabilized, read-out: Average tissue concentration, Heart) was 0.03 ng/g and the concentration at 15 min (Eight hour infusion, H3PO4 stabilized, read-out: Average tissue concentration, Hippocampus) was 1.12 ng/g. For the same compound, the concentration at 15 min (Eight hour infusion, H3PO4 stabilized, read-out: Average tissue concentration, Kidney) was 2.03 ng/g, the concentration at 15 min (Eight hour infusion, H3PO4 stabilized, read-out: Average tissue concentration, Liver) was 2.24 ng/g and the concentration at 15 min (Eight hour infusion, H3PO4 stabilized, read-out: Average tissue concentration, Lung) was 6.36 ng/g. The concentration at 15 min (Eight hour infusion, H3PO4 stabilized, read-out: Average tissue concentration, Muscle) was 2.42 ng/g, the concentration at 15 min (Eight hour infusion, H3PO4 stabilized, read-out: Average tissue concentration, Pancreas) was 1.34 ng/g and the concentration at 15 min (Eight hour infusion, H3PO4 stabilized, read-out: Average tissue concentration, Spleen) was 0.42 ng/g. The concentration at 15 min (Eight hour infusion, H3PO4 stabilized, read-out: Average tissue concentration, Striatum) was 3.13 ng/g, the Kp at 2 h (Kp [tissue]/[plasma], Intestinal Wall, 2 hr infusion, H3PO4 stabilized) was 0.0003 and the Kp at 8 h (Kp [tissue]/[plasma], Intestinal Wall, H3PO4 stabilized) was 0.002. For the same compound, the concentration at 15 min (Table 14, 2 hour infusion, +H3PO4, read-out: Tissue analysis, Brainstem) was 10.6 ng/g, the concentration at 15 min (Table 14, 2 hour infusion, +H3PO4, read-out: Tissue analysis, Cortex) was 3.08 ng/g and the concentration at 15 min (Table 14, 2 hour infusion, +H3PO4, read-out: Tissue analysis, Hippocampus) was 6.46 ng/g. The concentration at 15 min (Table 14, 2 hour infusion, +H3PO4, read-out: Tissue analysis, Liver) was 4.58 ng/g, the concentration at 15 min (Table 14, 2 hour infusion, +H3PO4, read-out: Tissue analysis, Lung) was 9.37 ng/g and the concentration at 15 min (Table 14, 2 hour infusion, +H3PO4, read-out: Tissue analysis, Pancreas) was 0.91 ng/g. The concentration at 15 min (Table 14, 2 hour infusion, +H3PO4, read-out: Tissue analysis, Spleen) was 1.6 ng/g, the concentration at 15 min (Table 14, 2 hour infusion, +H3PO4, read-out: Tissue analysis, Striatum) was 11.1 ng/g and the concentration at 15 min (Table 14, 2 hour infusion, −H3PO4, read-out: Tissue analysis, Brainstem) was 2.33 ng/g. It also gave a concentration at 15 min (Table 14, 2 hour infusion, −H3PO4, read-out: Tissue analysis, Cortex) of 0.67 ng/g, a concentration at 15 min (Table 14, 2 hour infusion, −H3PO4, read-out: Tissue analysis, Hippocampus) of 0.75 ng/g and a concentration at 15 min (Table 14, 2 hour infusion, −H3PO4, read-out: Tissue analysis, Liver) of 2.41 ng/g. The concentration at 15 min (Table 14, 2 hour infusion, −H3PO4, read-out: Tissue analysis, Lung) was 17.7 ng/g, the concentration at 15 min (Table 14, 2 hour infusion, −H3PO4, read-out: Tissue analysis, Pancreas) was 2.01 ng/g and the concentration at 15 min (Table 14, 2 hour infusion, −H3PO4, read-out: Tissue analysis, Spleen) was 1.35 ng/g. For the same compound, the concentration at 15 min (Table 14, 2 hour infusion, −H3PO4, read-out: Tissue analysis, Striatum) was 6.21 ng/g, the concentration at 15 min (Table 15, 2 hour infusion, +H3PO4, read-out: Tissue analysis, Brainstem) was 3.02 ng/g and the concentration at 15 min (Table 15, 2 hour infusion, +H3PO4, read-out: Tissue analysis, Cortex) was 0.49 ng/g. The concentration at 15 min (Table 15, 2 hour infusion, +H3PO4, read-out: Tissue analysis, Hippocampus) was 1.12 ng/g, the concentration at 15 min post-infusion (Table 15, 2 hour infusion, +H3PO4, read-out: Tissue analysis, Liver) was 2.24 ng/g and the concentration at 15 min (Table 15, 2 hour infusion, +H3PO4, read-out: Tissue analysis, Lung) was 6.36 ng/g. For the same compound, the concentration at 15 min (Table 15, 2 hour infusion, +H3PO4, read-out: Tissue analysis, Pancreas) was 1.34 ng/g, the concentration at 15 min post-infusion (Table 15, 2 hour infusion, +H3PO4, read-out: Tissue analysis, Spleen) was 0.42 ng/g and the concentration at 15 min (Table 15, 2 hour infusion, +H3PO4, read-out: Tissue analysis, Striatum) was 3.13 ng/g. For the same compound, the concentration at 15 min (Table 15, 2 hour infusion, −H3PO4, read-out: Tissue analysis, Brainstem) was 0.83 ng/g, the concentration at 15 min (Table 15, 2 hour infusion, −H3PO4, read-out: Tissue analysis, Cortex) was 0.12 ng/g and the concentration at 15 min (Table 15, 2 hour infusion, −H3PO4, read-out: Tissue analysis, Hippocampus) was 0.01 ng/g. For the same compound, the concentration at 15 min post-infusion (Table 15, 2 hour infusion, −H3PO4, read-out: Tissue analysis, Liver) was 2.63 ng/g, the concentration at 15 min (Table 15, 2 hour infusion, −H3PO4, read-out: Tissue analysis, Lung) was 10.8 ng/g and the concentration at 15 min (Table 15, 2 hour infusion, −H3PO4, read-out: Tissue analysis, Pancreas) was 0.33 ng/g. The concentration at 15 min post-infusion (Table 15, 2 hour infusion, −H3PO4, read-out: Tissue analysis, Spleen) was 0.32 ng/g, the concentration at 15 min (Table 15, 2 hour infusion, −H3PO4, read-out: Tissue analysis, Striatum) was 1.12 ng/g and the concentration at 15 min (Tissue level, Intestinal Wall, 2 hour infusion, No H3PO4) was 0.73 ng/g. The concentration at 15 min (Tissue level, Intestinal Wall, 2 hour infusion, Plus H3PO4) was 2.12 ng/g, the concentration at 15 min (Tissue level, Intestinal Wall, 8 hour infusion, No H3PO4) was 0.31 ng/g and the concentration at 15 min (Tissue level, Intestinal Wall, 8 hour infusion, Plus H3PO4) was 0.21 ng/g. It also gave a concentration at 15 min (Two hour infusion, H3PO4 stabilized, read-out: Average tissue concentration, Bladder) of 2.25 ng/g, a concentration at 15 min (Two hour infusion, H3PO4 stabilized, read-out: Average tissue concentration, Brainstem) of 10.6 ng/g and a concentration at 15 min (Two hour infusion, H3PO4 stabilized, read-out: Average tissue concentration, Cortex) of 3.08 ng/g. The concentration at 15 min (Two hour infusion, H3PO4 stabilized, read-out: Average tissue concentration, Heart) was 0.68 ng/g, the concentration at 15 min (Two hour infusion, H3PO4 stabilized, read-out: Average tissue concentration, Hippocampus) was 6.46 ng/g and the concentration at 15 min (Two hour infusion, H3PO4 stabilized, read-out: Average tissue concentration, Kidney) was 4.25 ng/g. It also gave a concentration at 15 min (Two hour infusion, H3PO4 stabilized, read-out: Average tissue concentration, Liver) of 4.58 ng/g, a concentration at 15 min (Two hour infusion, H3PO4 stabilized, read-out: Average tissue concentration, Lung) of 9.37 ng/g and a concentration at 15 min (Two hour infusion, H3PO4 stabilized, read-out: Average tissue concentration, Muscle) of 4.19 ng/g. For the same compound, the concentration at 15 min (Two hour infusion, H3PO4 stabilized, read-out: Average tissue concentration, Pancreas) was 0.91 ng/g, the concentration at 15 min (Two hour infusion, H3PO4 stabilized, read-out: Average tissue concentration, Spleen) was 1.6 ng/g and the concentration at 15 min (Two hour infusion, H3PO4 stabilized, read-out: Average tissue concentration, Striatum) was 11.1 ng/g.
